According to patent publication US9321722B2, “Bis-indolic derivatives, their uses in particular as antibacterials” (UNIVERSITE JOSEPH FOURIER, priority 2011, dated 2016):
In brackets after ≈: the same amount, converted by molar mass.

Assays:
Assay in all cases: MIC, Staphylococcus panel (Table I-2)
Assay type in all cases: cell-based
[1] = system: Staphylococcus aureus MRSA 252; conditions: 18 h, 4% DMSO
Experimental: (§1) We used the previously described protocol, with subtle modifications. The microdilution method recommended by the Clinical and Laboratory Standard Institute [M07-A9, Vol. 32, N^o 2] was used. The activity of bis-indolic compounds was tested against 35 bacterial strains belonging to 12 different Staphylococcus species.
(§2) Bacterial inocula were prepared in Mueller Hinton broth (MH2, BioMerieux, Marcy L'Etoile, France). They were dispensed in 96 well microtiter plates (5×10^5 CFU/ml of final inoculum, 192 μL per well). Indolic compounds diluted in pure DMSO (8 μL per well, concentrated 25 times) were added to the wells as to obtain two-fold serial concentrations (0.5-32 mg/L of final concentrations). The final concentration of DMSO was 4% in each well.
(§3) To avoid cross-contaminations in microtiter plates, one row was left blank between each strain tested. Microplates were incubated for 18 h at 37° C. in ambient air or at 37° C. in 5% CO2 enriched atmosphere for fastidious species. Then MICs were read visually and, in case of visual reading difficulties, confirmed using a spectrophotometer at a wavelength of 630 nm (BioTek® EL808 Absorbance Microplate Reader). MICs corresponded to the minimum bis-indolic compound concentration that allowed complete visual growth inhibition of bacteria. Drug-free cultures served as growth controls.
(§4) We used four Staphylococcus aureus strains. Two reference strains were provided by the French reference center for Staphylococcus spp. (Lyon, France), including one methicillin-susceptible (MSSA 476) and one methicillin-resistant (MRSA 252) S. aureus strains. The two remaining S. aureus strains were purchased from the CRBIP (Centre de Ressources Biologiques de l'Institut Pasteur): a vancomycin-intermediate strain (ATCC 106414) and a S. aureus strain (SA-1199B) resistant to fluoroquinolones due to overexpression of the NorA multidrug efflux pump.

[2] = system: Staphylococcus aureus MSSA 476; conditions: 18 h, 4% DMSO
Experimental: as §1, §2, §3, §4

[3] = system: Staphylococcus aureus ATCC 106414 (VISA); conditions: 18 h, 4% DMSO
Experimental: as §1, §2, §3, §4

[4] = system: Staphylococcus aureus SA-1199B (NorA); conditions: 18 h
Experimental: as §1, §2, §3, §4

[5] = system: Staphylococcus hominis (CHUG-Shom7); conditions: 18 h, 4% DMSO
Experimental: as §1, §2, §3
(§5) Coagulase-negative Staphylococcus strains included three reference strains purchased from CRBIP: a methicillin-susceptible S. epidermidis strain (ATCC 12228), a methicillin-resistant S. epidermidis strain (ATCC 49461), and a methicillin-susceptible S. sciuri strain (ATCC 29061). We also used clinical strains belonging to the following coagulase-negative Staphylococcus species: S. auricularis (two strains), S. warneri (five strains), S. capitis (five strains), S. haemolyticus (four strains), S. hominis (seven strains), S. cohnii (two strains), and S. saprophyticus, S. caprae and S. simulans (one strain each). Identification of the clinical strains was obtained using VITEK® 2 System (Biomérieux).

[6] = system: Staphylococcus simulans (CHUG-Ssim1); conditions: 18 h, 4% DMSO
Experimental: as §1, §2, §3, §5

[7] = system: Staphylococcus haemolyticus (CHUG-Scap6); conditions: 18 h, 4% DMSO
Experimental: as §1, §2, §3, §5

[8] = system: Staphylococcus hominis (CHUG-Shom5); conditions: 18 h, 4% DMSO
Experimental: as §1, §2, §3, §5

[9] = system: Staphylococcus warneri (CHUG-Swar1); conditions: 18 h, 4% DMSO
Experimental: as §1, §2, §3, §5

[10] = system: Staphylococcus warneri (CHUG-Swar4); conditions: 18 h, 4% DMSO
Experimental: as §1, §2, §3, §5

[11] = system: Staphylococcus warneri (CHUG-Swar7); conditions: 18 h, 4% DMSO
Experimental: as §1, §2, §3, §5

[12] = system: Staphylococcus sciuri ATCC 29061; conditions: Mammaliicoccus sciuri, ATCC29061, 18 h, 4% DMSO
Experimental: as §1, §2, §3, §5

[13] = system: Staphylococcus cohnii (CHUG-Scoh2); conditions: 18 h, 4% DMSO
Experimental: as §1, §2, §3, §5

[14] = system: Staphylococcus epidermidis ATCC 12228; conditions: ATCC12228, 18 h, 4% DMSO
Experimental: as §1, §2, §3, §5

[15] = system: Staphylococcus haemolyticus (CHUG-Shae1); conditions: 18 h, 4% DMSO
Experimental: as §1, §2, §3, §5

[16] = system: Staphylococcus capitis (CHUG-Scap1); conditions: 18 h, 4% DMSO
Experimental: as §1, §2, §3, §5

[17] = system: Staphylococcus capitis (CHUG-Scap5); conditions: 18 h, 4% DMSO
Experimental: as §1, §2, §3, §5

[18] = system: Staphylococcus haemolyticus (CHUG-Scap5); conditions: 18 h, 4% DMSO
Experimental: as §1, §2, §3, §5

[19] = system: Staphylococcus capitis (CHUG-Scap6); conditions: 18 h, 4% DMSO
Experimental: as §1, §2, §3, §5

[20] = system: Staphylococcus auricularis (CHUG-Saur3); conditions: 18 h, 4% DMSO
Experimental: as §1, §2, §3, §5

[21] = system: Staphylococcus hominis (CHUG-Shom6); conditions: 18 h, 4% DMSO
Experimental: as §1, §2, §3, §5

[22] = system: Staphylococcus cohnii (CHUG-Scoh1) (MRSA); conditions: 18 h, 4% DMSO
Experimental: as §1, §2, §3, §5

[23] = system: Staphylococcus capitis (CHUG-Scap4); conditions: 18 h, 4% DMSO
Experimental: as §1, §2, §3, §5

[24] = system: Staphylococcus haemolyticus (CHUG-Scap4); conditions: 18 h, 4% DMSO
Experimental: as §1, §2, §3, §5

[25] = system: Staphylococcus warneri (CHUG-Swar6); conditions: 18 h, 4% DMSO
Experimental: as §1, §2, §3, §5

[26] = system: Staphylococcus hominis (CHUG-Shom1); conditions: 18 h, 4% DMSO
Experimental: as §1, §2, §3, §5

[27] = system: Staphylococcus saprophyticus (CHUG-Ssap2); conditions: 18 h, 4% DMSO
Experimental: as §1, §2, §3, §5

[28] = system: Staphylococcus auricularis (CHUG-Saur1); conditions: 18 h, 4% DMSO
Experimental: as §1, §2, §3, §5

[29] = system: Staphylococcus hominis (CHUG-Shom4); conditions: 18 h, 4% DMSO
Experimental: as §1, §2, §3, §5

[30] = system: Staphylococcus hominis (CHUG-Shom3); conditions: 18 h, 4% DMSO
Experimental: as §1, §2, §3, §5

[31] = system: Staphylococcus hominis (CHUG-Shom8); conditions: 18 h, 4% DMSO
Experimental: as §1, §2, §3, §5

[32] = system: Staphylococcus epidermidis ATCC 49461; conditions: ATCC49461, 18 h, 4% DMSO
Experimental: as §1, §2, §3, §5

Row | SMILES | MIC [1] | MIC [2] | MIC [3] | MIC [4] | MIC [5] | MIC [6] | MIC [7] | MIC [8] | MIC [9] | MIC [10] | MIC [11] | MIC [12] | MIC [13] | MIC [14] | MIC [15] | MIC [16] | MIC [17] | MIC [18] | MIC [19] | MIC [20] | other results
1 | CC(NC(=O)C(=O)c1c[nH]c2ccc(Br)cc12)c1c[nH]c2ccc(Br)cc12 (stereo not shown) [Compound 5, 2-(5-Bromo-1H-indol-3-yl)-N-(1-(5-bromo-1H-indol-3-yl)ethyl)-2-oxoacetamide] | 2 µg/mL (≈ 4.09 µM) | 2 µg/mL (≈ 4.09 µM) | 1 µg/mL (≈ 2.04 µM) | 2 µg/mL (≈ 4.09 µM) | 2 µg/mL (≈ 4.09 µM) | 2 µg/mL (≈ 4.09 µM) | 4 µg/mL (≈ 8.18 µM) | 1 µg/mL (≈ 2.04 µM) | 2 µg/mL (≈ 4.09 µM) | 2 µg/mL (≈ 4.09 µM) | 2 µg/mL (≈ 4.09 µM) | 4 µg/mL (≈ 8.18 µM) | 2 µg/mL (≈ 4.09 µM) | 2 µg/mL (≈ 4.09 µM) | 4 µg/mL (≈ 8.18 µM) | 2 µg/mL (≈ 4.09 µM) | 2 µg/mL (≈ 4.09 µM) | 4 µg/mL (≈ 8.18 µM) | 1 µg/mL (≈ 2.04 µM) | 1 µg/mL (≈ 2.04 µM) | MIC [21]: 2 µg/mL (≈ 4.09 µM); MIC [22]: 2 µg/mL (≈ 4.09 µM); MIC [23]: 1 µg/mL (≈ 2.04 µM); MIC [24]: 4 µg/mL (≈ 8.18 µM); MIC [25]: 2 µg/mL (≈ 4.09 µM); MIC [26]: 4 µg/mL (≈ 8.18 µM); MIC [27]: 2 µg/mL (≈ 4.09 µM); MIC [28]: 1 µg/mL (≈ 2.04 µM); MIC [29]: 2 µg/mL (≈ 4.09 µM); MIC [30]: 2 µg/mL (≈ 4.09 µM); MIC [31]: 2 µg/mL (≈ 4.09 µM); MIC [32]: 2 µg/mL (≈ 4.09 µM)
2 | CC(C)(C)OC(=O)NCC(NC(=O)C(=O)c1c[nH]c2ccc(Br)cc12)c1c[nH]c2ccc(Br)cc12 (stereo not shown) [Compound 4, tert-Butyl(2-(5-bromo-1H-indol-3-yl)-2-(2-(5-bromo-1H-indol-3-yl)-2-oxoacetamido)ethyl) carbamate] | 1 µg/mL (≈ 1.65 µM) | 1 µg/mL (≈ 1.65 µM) | 1 µg/mL (≈ 1.65 µM) | 1 µg/mL (≈ 1.65 µM) | 1 µg/mL (≈ 1.65 µM) | 1 µg/mL (≈ 1.65 µM) | 2 µg/mL (≈ 3.31 µM) | 1 µg/mL (≈ 1.65 µM) | 1 µg/mL (≈ 1.65 µM) | 1 µg/mL (≈ 1.65 µM) | 1 µg/mL (≈ 1.65 µM) | 2 µg/mL (≈ 3.31 µM) | 2 µg/mL (≈ 3.31 µM) | 1 µg/mL (≈ 1.65 µM) | 1 µg/mL (≈ 1.65 µM) | 1 µg/mL (≈ 1.65 µM) | 1 µg/mL (≈ 1.65 µM) | 1 µg/mL (≈ 1.65 µM) | 1 µg/mL (≈ 1.65 µM) | 1 µg/mL (≈ 1.65 µM) | MIC [21]: 1 µg/mL (≈ 1.65 µM); MIC [22]: 1 µg/mL (≈ 1.65 µM); MIC [23]: 1 µg/mL (≈ 1.65 µM); MIC [24]: 2 µg/mL (≈ 3.31 µM); MIC [25]: 1 µg/mL (≈ 1.65 µM); MIC [26]: 2 µg/mL (≈ 3.31 µM); MIC [27]: 1 µg/mL (≈ 1.65 µM); MIC [28]: 1 µg/mL (≈ 1.65 µM); MIC [29]: 1 µg/mL (≈ 1.65 µM); MIC [30]: 1 µg/mL (≈ 1.65 µM); MIC [31]: 1 µg/mL (≈ 1.65 µM); MIC [32]: 1 µg/mL (≈ 1.65 µM)
